{
  "source": "patent US9125824B1",
  "about": "(InnoVitamin Organics, LLC, priority 2010, dated 2015)",
  "assay": "storage stability of trans-resveratrol under controlled temperature and humidity",
  "assay_type": "physicochemical",
  "details": "stored at 10.0° C. (50 degrees F.) to approximately 30° C. (86 degrees F.), humidity less than 35 percent",
  "description": "(50 degrees F.) to approximately 30° C.\nTwenty five (25) kilograms of fine powder consisting of pomace, vines and leaves is stored in a cool, dark, dry location for shipping to the dietary supplement manufacturing facility. The temperature range of the storage area is in a range of between approximately 10.0° C. (50 degrees F.) to approximately 30° C. (86 degrees F.) and the dry location has a humidity level of less than 35 percent water vapor in the air.",
  "data": [
    {"molecule": "Oc1ccc(/C=C/c2cc(O)cc(O)c2)cc1", "note": "[trans-resveratrol]", "values": [
      {"measurement": "stability during storage and processing", "result": "remain stable"},
      {"measurement": "stability during storage and processing", "setting": "listed as organic trans-resveratrol", "result": "remains a stable compound"}
    ]}
  ]
}
